# Test system: Primary osteoblast cells
# Assay: Assay of alkaline phosphatase activity in cultured osteoblasts
# Format: cell-based, rat
# Procedure: Primary osteoblast cultures: Primary osteoblast cells were prepared from calvaria of 18-day-old fetal Sprague-Dawley (SD) rats according to the following method: Pregnant rats were put in anesthesia using intraperitoneal injection of trichloroacetaldehyde (200 mg/kg). The calvaria of the fetal rats were then dissected with aseptic technique. Soft tissues were removed under a dissecting microscope. The calvaria were divided into small pieces and then treated with 0.1% collagenase (Sigma Chemical, St. Louis, Mo.) solution for 10 minutes at 37° C. The cells released from the calvariae by two 20-minute sequential collagenase digestions were pooled and filtered through 70 μm nylon filters (Falcon, BD BioSciences, San Jose, Calif.). The cells were then grown on plastic cell culture dishes in 95:5 air-CO2 with Dulbecco's modified Eagle's medium (DMEM) (Gibco, Grand Island, N.Y.) which was supplemented with 20 mM HEPES and 10% heat-inactivated FCS, 2 mM-glutamine, penicillin (100 U/ml) and streptomycin (100 μg/ml) (pH adjusted to 7.6). The cell medium was changed twice a week. Osteoblasts were confirmed by morphology and expression of alkaline phosphatase (ALP). To examine the maturation of osteoblasts, cells were cultured for up to 14 days in a growth medium containing ascorbic acid (50 μg/ml) (Sigma Chemical, St. Louis, Mo.) and β-glycerophosphate (10 mM) (Sigma Chemical, St. Louis, Mo.) and the medium was changed every 3 day. Assay of alkalinephosphatase activity: Cells cultured in 6-well plates in the presence or absence of Indazole 1 were harvested in 1 ml of 0.2% Nonidet P-40 and cell suspension was disrupted by sonication. After centrifugation at 1500 g for 5 min, ALP activity in the supernatant was measured by the method of Lowry et al (1954) J Biol Chem 207:19–37.
smiles,measurement,setting,value
"OCc1ccc(-c2nn(Cc3ccccc3)c3ccccc23)o1 [Indazole 1, 1-benzyl-3-(5′-hydroxymethyl-2′-furyl)-indazole]",concentration dependence of the increase of ALP activity,,concentration-dependent
same,ALP activity (ALP staining),10 μM for 2 weeks,significantly increased

# From US7160916B2, “Method of increasing bone density or treating osteoporosis” (Yung Shin Pharmaceutical Ind. Co., Ltd., priority 2003, dated 2007)
